Data on 14 compounds can be found in patent US10260079B2, “Method for producing ergothioneine by using soybean cake powder as nitrogen source in a seed medium” (TIANJIN INSTITUTE OF INDUSTRIAL BIOTECHNOLOGY, CHINESE …, priority 2014, dated 2019).

This assay deals with Pleurotus ostreatus mycelia CGMCC No. 6232. Kind of assay: Shake-flask fermentation, total content of ergothioneine in the fermentation broth by HPLC. In kind it is cell-based.

“And” between values parts separate entries of the source, which are not always exact repeats. Equal entries are not always repeated. Where two headings read alike, the source gives them in different places.

On to `N[C@@H](CS)C(=O)O` [cysteine], for which the activation at 15000 µM (Pleurotus ostreatus, CGMCC6232, 360 h, cysteine 15 mmol/L added on the 6th day, read-out: content of ergothioneine improved compared with control group) was found to be 56% and the activation at 15000 µM (Pleurotus ostreatus, CGMCC6232, 360 h, cysteine 15 mmol/L, read-out: content of ergothioneine improved compared with control group) came out at 46%. For the same compound, the “Content of ergothioneine in fermentation broth” value (“Content … in fermentation broth” for short) was 124.8 ± 2.03 mg/L (cysteine 2 mmol/L added in fermentation medium); 140.4 ± 1.83 mg/L (cysteine 9 mmol/L added in fermentation medium); 175.5 mg/L and 175.5 ± 1.36 mg/L (cysteine 15 mmol/L added in fermentation medium); 170.3 ± 1.92 mg/L (cysteine 15 mmol/L, timing for adding 0 d (before the fermentation)); 177.4 ± 2.33 mg/L (cysteine 15 mmol/L, timing for adding 2 d); 186.1 ± 1.67 mg/L (cysteine 15 mmol/L, timing for adding 4 d). The “Content … in fermentation broth” value was 193.8 mg/L and 193.8 ± 4.16 mg/L (cysteine 15 mmol/L, timing for adding 6 d); 172.1 ± 1.73 mg/L (cysteine 15 mmol/L, timing for adding 8 d); 156.5 ± 2.52 mg/L (cysteine 15 mmol/L, timing for adding 10 d); 164.6 ± 4.31 mg/L (cysteine 25 mmol/L added in fermentation medium); 148.1 ± 2.74 mg/L (cysteine 35 mmol/L added in fermentation medium); 126.1 ± 2.99 mg/L (cysteine 45 mmol/L added in fermentation medium).
As to `Nc1nc2ncc(CNc3ccc(C(=O)N[C@@H](CCC(=O)O)C(=O)O)cc3)nc2c(=O)[nH]1` [folic acid], the activation at 640 µg/mL (Pleurotus ostreatus, CGMCC6232, 360 h, folic acid 0.64 g/L, read-out: content of ergothioneine improved compared with control group) was found to be 25%. Besides, the “Content … in fermentation broth” value runs as follows: (folic acid 0.08 g/L added in fermentation medium) 121.4 ± 1.36 mg/L; (folic acid 0.16 g/L added in fermentation medium) 127.1 ± 2.24 mg/L; (folic acid 0.32 g/L added in fermentation medium) 136.9 ± 4.14 mg/L; (folic acid 0.64 g/L added in fermentation medium) 148.6 mg/L and 148.6 ± 1.54 mg/L; (folic acid 1.28 g/L added in fermentation medium) 143.8 ± 1.77 mg/L; (folic acid 2.56 g/L added in fermentation medium) 122.2 ± 3.03 mg/L.
As for `CSCC[C@H](N)C(=O)O` [methionine], the activation at 15000 µM (Pleurotus ostreatus, CGMCC6232, 360 h, methionine 15 mmol/L added on the 4th day, read-out: content of ergothioneine improved compared with control group) worked out at 63.1% and the activation at 15000 µM (Pleurotus ostreatus, CGMCC6232, 360 h, methionine 15 mmol/L, read-out: content of ergothioneine improved compared with control group) came to 49.4%. Moreover, the “Content … in fermentation broth” value runs as follows: (methionine 3 mmol/L added in fermentation medium) 127.3 ± 3.47 mg/L; (methionine 9 mmol/L added in fermentation medium) 154.8 ± 3.31 mg/L; (methionine 15 mmol/L added in fermentation medium) 179.6 mg/L and 179.6 ± 4.17 mg/L; (methionine 15 mmol/L, timing for adding 0 d (before the fermentation)) 179.3 ± 4.23 mg/L; (methionine 15 mmol/L, timing for adding 2 d) 190.5 ± 2.84 mg/L; (methionine 15 mmol/L, timing for adding 4 d) 202.6 mg/L and 202.6 ± 5.01 mg/L. Further, the “Content … in fermentation broth” value by setting is: (methionine 15 mmol/L, timing for adding 6 d) 174.9 ± 3.73 mg/L; (methionine 15 mmol/L, timing for adding 8 d) 160.3 ± 5.29 mg/L; (methionine 15 mmol/L, timing for adding 10 d) 149.3 ± 3.27 mg/L; (methionine 25 mmol/L added in fermentation medium) 168.5 ± 4.53 mg/L; (methionine 35 mmol/L added in fermentation medium) 153.7 ± 3.2 mg/L; (methionine 45 mmol/L added in fermentation medium) 126.9 ± 2.81 mg/L.
`C[N+](C)(C)CC(=O)O` [betaine]: the activation at 150000 µM (Pleurotus ostreatus, CGMCC6232, 360 h, betaine 150 mmol/L, read-out: content of ergothioneine improved compared with control group) worked out at 22%. Moreover, the “Content … in fermentation broth” value was 125.3 ± 2.67 mg/L (betaine 50 mmol/L added in fermentation medium); 130.1 ± 2.14 mg/L (betaine 100 mmol/L added in fermentation medium); 146.6 mg/L and 146.6 ± 2.64 mg/L (betaine 150 mmol/L added in fermentation medium); 129.9 ± 3.34 mg/L (betaine 200 mmol/L added in fermentation medium); 124.8 ± 1.38 mg/L (betaine 250 mmol/L added in fermentation medium).
Take `N[C@@H](CCC(=O)O)C(=O)O` [glutamic acid]: the activation at 10 µM (Pleurotus ostreatus, CGMCC6232, 360 h, glutamic acid 10 μmol/L, read-out: content of ergothioneine improved compared with control group) was determined as 9.1%. Besides, the “Content … in fermentation broth” value is 123.6 ± 0.92 mg/L (glutamic acid 1 μmol/L added in fermentation medium); 128.8 ± 1.19 mg/L (glutamic acid 5 μmol/L added in fermentation medium); 131.2 mg/L and 131.2 ± 2.62 mg/L (glutamic acid 10 μmol/L added in fermentation medium); 124 ± 1.72 mg/L (glutamic acid 50 μmol/L added in fermentation medium); 122.7 ± 1.63 mg/L (glutamic acid 100 μmol/L added in fermentation medium).
As to `N[C@@H](Cc1c[nH]cn1)C(=O)O` [histidine], the activation at 1000 µM (Pleurotus ostreatus, CGMCC6232, 360 h, histidine 1 mmol/L, read-out: content of ergothioneine improved compared with control group) amounted to 7.7%.
Take `Cc1ncc(C[n+]2csc(CCO)c2C)c(N)n1` [VB1, vitamin B1]: the “Content … in fermentation broth” value reads like this: (VB1 0.01 g/L added in fermentation medium) 122.7 ± 1.02 mg/L; (VB1 0.05 g/L added in fermentation medium) 128.8 ± 2.41 mg/L; (VB1 0.1 g/L added in fermentation medium) 132.2 mg/L and 132.2 ± 1.39 mg/L; (VB1 0.2 g/L added in fermentation medium) 129.6 ± 2.67 mg/L; (VB1 0.4 g/L added in fermentation medium) 127 ± 1.86 mg/L; (VB1 0.8 g/L added in fermentation medium) 123.3 ± 3.03 mg/L. For the setting “VB1 0.1 g/L”, the “content of ergothioneine improved compared with control group” value (from here on “content … compared with control group”) is recorded as 11.2%.
For the compound `O=C(O)CC(O)(CC(=O)O)C(=O)O` [citric acid], the activation at 400 µg/mL (Pleurotus ostreatus, CGMCC6232, 360 h, citric acid 0.4 g/L, read-out: content of ergothioneine improved compared with control group) turned out to be 10.4%. For the same compound, the “Content … in fermentation broth” value is 126.9 ± 2.75 mg/L (citric acid 0.01 g/L added in fermentation medium); 130.2 ± 1.31 mg/L (citric acid 0.05 g/L added in fermentation medium); 135.4 ± 0.83 mg/L (citric acid 0.2 g/L added in fermentation medium); 138.3 mg/L and 138.3 ± 2.49 mg/L (citric acid 0.4 g/L added in fermentation medium); 128.4 ± 1.16 mg/L (citric acid 0.8 g/L added in fermentation medium).
In the case of `O=C(O)CCCc1c[nH]c2ccccc12` [indolebutyric acid], the “Content … in fermentation broth” value is, setting by setting: (indolebutyric acid 0.1 mg/L added in fermentation medium) 130.9 ± 2.23 mg/L; (indolebutyric acid 0.5 mg/L added in fermentation medium) 138.4 ± 1.29 mg/L; (indolebutyric acid 1 mg/L added in fermentation medium) 140.6 mg/L and 140.6 ± 3.09 mg/L; (indolebutyric acid 2 mg/L added in fermentation medium) 137.7 ± 1.84 mg/L; (indolebutyric acid 4 mg/L added in fermentation medium) 132.8 ± 0.93 mg/L. Also, under “indolebutyric acid 1 mg/L”, the “content … compared with control group” value worked out at 9.33%.
With `Cl.N` [NH4Cl], the “Content … in fermentation broth” value reads like this: (NH4Cl 0.5 g/L added in fermentation medium) 127 ± 1.87 mg/L; (NH4Cl 1 g/L added in fermentation medium) 133.7 ± 1.04 mg/L; (NH4Cl 2 g/L added in fermentation medium) 139.2 ± 1.55 mg/L; (NH4Cl 4 g/L added in fermentation medium) 155.4 mg/L and 155.4 ± 2.68 mg/L; (NH4Cl 8 g/L added in fermentation medium) 141.8 ± 0.68 mg/L; (NH4Cl 12 g/L added in fermentation medium) 128.6 ± 3.53 mg/L. Further, the “content … compared with control group” value (NH4Cl 4 g/L) is recorded as 24.4%.
For NH4NO3, the “Content … in fermentation broth” value is 127.2 ± 1.18 mg/L and 134 ± 2.46 mg/L and 140.7 ± 3.74 mg/L and 148 ± 0.82 mg/L and 141.4 ± 1.98 mg/L and 129.7 ± 1.03 mg/L; the “content … compared with control group” value worked out at 18.5%.
With span 80, the “Content … in fermentation broth” value was 124.7 ± 2.59 mg/L (span 80 0.2 g/L added in fermentation medium); 156.3 ± 1.92 mg/L (span 80 0.5 g/L added in fermentation medium); 175.1 ± 2.83 mg/L (span 80 1 g/L added in fermentation medium); 196.5 mg/L and 196.5 ± 3.54 mg/L (span 80 3 g/L added in fermentation medium); 184.3 ± 3.7 mg/L (span 80 5 g/L added in fermentation medium); 129.6 ± 1.18 mg/L (span 80 10 g/L added in fermentation medium). Also, the “content … compared with control group” value (span 80 3 g/L) worked out at 69.7%.
For `[Cl-].[Na+]` [NaCl], the “content … compared with control group” value is on record as 6.63%.
Take `CC(=O)C(=O)O` [pyruvic acid]: the activation at 2200 µg/mL (Pleurotus ostreatus, CGMCC6232, 360 h, pyruvic acid 2.2 g/L, read-out: content of ergothioneine improved compared with control group) turned out to be 5.9%. Also, the “Content … in fermentation broth” value is 127.4 ± 0.57 mg/L (pyruvic acid 0.05 g/L added in fermentation medium); 128.6 ± 1.03 mg/L (pyruvic acid 0.1 g/L added in fermentation medium); 130.4 ± 0.82 mg/L (pyruvic acid 0.5 g/L added in fermentation medium); 131.9 ± 1.43 mg/L (pyruvic acid 1.0 g/L added in fermentation medium); 132.7 mg/L and 132.7 ± 0.46 mg/L (pyruvic acid 2.2 g/L added in fermentation medium); 128.7 ± 0.69 mg/L (pyruvic acid 4.5 g/L added in fermentation medium).
